# Measurements as given in patent US9663511B2, “Sphingosine 1-phosphate receptor antagonists” (ARROYO BIOSCIENCES, LLC, priority 2012, dated 2017).
# Assays:
# S1P2 receptor = S1P2 receptor (Homo sapiens (Human), UniProt O95136); test: Antagonist assay (FLIPR TETRA, inhibition of reference agonist EC80) on S1P2; assay type: cell-based; conditions: tested as the citrate salt
# Description: (§1) Antagonist percentage inhibition determinations were obtained by assaying sample compounds and referencing the control (EC80) wells for each profiled (GPCR) which evaluated binding to S1P2 and S1P5 receptors. The samples were run using a single addition assay protocol. The protocol design is as follows.
# (§2) Unless specified otherwise, the sample compounds were diluted in 100% anhydrous DMSO including all dilutions. The compounds were tested as the citrate salt (1 equivalent per molecule). If the sample compound is provided in a different solvent all master stock dilutions are performed in the specified solvent. All control wells contained identical solvent final concentrations as the sample compound wells.
# (§3) The sample compounds were transferred from a master stock solution into a daughter plate that was used in the assay. Each sample compound was diluted into an assay buffer (1×HBSS with 20 mM HEPES, 2.5 mM Probenecid, and 0.4% Free Fatty Acid BSA) at an appropriate concentration to obtain final specified concentrations.
# (§4) Using the EC80 values that were determined real-time, stimulated all pre-incubated sample compounds and reference antagonists (if applicable) were compared with the EC80 values of reference agonist. These were read for 180 seconds using the FLIPR^TETRA (This assay added reference agonist to respective wells-then fluorescences measurements were collected to calculate IC50 values). All plates were subjected to appropriate baseline corrections. Once baseline corrections were processed, maximum fluorescence values were exported and data manipulated to calculate percentage activation, percentage inhibition and Z′.
# S1P5 receptor = S1P5 receptor (Homo sapiens (Human), UniProt Q9H228); test: Antagonist assay (FLIPR TETRA, inhibition of reference agonist EC80) on S1P5; assay type: cell-based; conditions: tested as the citrate salt
# Sequence of S1P5 receptor (Q9H228 whole entry): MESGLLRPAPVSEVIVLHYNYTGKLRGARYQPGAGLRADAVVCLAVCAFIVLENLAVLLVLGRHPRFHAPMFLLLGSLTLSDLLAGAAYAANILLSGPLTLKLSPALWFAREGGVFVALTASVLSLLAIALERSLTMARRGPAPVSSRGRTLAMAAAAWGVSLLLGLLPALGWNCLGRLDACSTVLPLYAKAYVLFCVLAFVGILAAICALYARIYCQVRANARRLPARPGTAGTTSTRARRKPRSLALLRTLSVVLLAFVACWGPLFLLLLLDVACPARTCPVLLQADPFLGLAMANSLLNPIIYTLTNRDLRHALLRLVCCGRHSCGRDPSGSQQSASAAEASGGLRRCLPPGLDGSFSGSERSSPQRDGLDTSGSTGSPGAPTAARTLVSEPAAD
# Description: as §1, §2, §3, §4
# [1] = In vitro plasma protein binding; assay type: in vitro ADME, mouse; conditions: for mean fraction bound (%): mouse plasma, test concentration 5 nM
# [2] = Microsomal intrinsic clearance; conditions: for microsomal CLint at 1 μM / half-life at 1 μM: mouse, liver microsomes, mouse microsomes, test conc. 1 μM
# Sequence of S1P2 receptor (O95136 whole entry): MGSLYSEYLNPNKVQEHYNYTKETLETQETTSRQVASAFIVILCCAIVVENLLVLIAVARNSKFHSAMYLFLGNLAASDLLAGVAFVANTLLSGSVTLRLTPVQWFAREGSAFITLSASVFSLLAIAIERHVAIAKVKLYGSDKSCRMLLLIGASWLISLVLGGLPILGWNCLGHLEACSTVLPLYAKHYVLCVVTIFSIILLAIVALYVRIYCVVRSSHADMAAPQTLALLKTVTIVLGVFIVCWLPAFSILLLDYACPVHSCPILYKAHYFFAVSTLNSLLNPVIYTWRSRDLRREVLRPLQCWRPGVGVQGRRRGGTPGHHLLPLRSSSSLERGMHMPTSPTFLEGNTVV
SMILES,IC50 (S1P2 receptor),IC50 (S1P5 receptor),other results
Cc1nn(C)c2nc(N(CCO)NC(=O)Nc3cnc(Cl)c(Cl)c3)cc(C(C)C)c12 [Compound 40],300 nM,> 10000 nM,
Cc1nn(C)c2nc(N(CCO)NC(=O)Nc3cc(Cl)cc(C(F)(F)F)c3)cc(C(C)C)c12 [Compound 44],> 120 nM,74 nM,
Cc1nn(C)c2nc(N(CCO)NC(=O)Nc3ccc(Cl)nc3Cl)cc(C(C)C)c12 [Compound 41],> 10000 nM,> 10000 nM,
C=CCn1nc(C)c2c(C(C)C)cc(N(CC(=O)O)NC(=O)Nc3cc(Cl)nc(Cl)c3)nc21 [Compound 3],3000 nM,5700 nM,
Cc1sc(NC(=O)NN(CCO)c2cc(C(C)C)c3c(C)nn(C)c3n2)cc1Cl [Compound 43],360 nM,> 10000 nM,
C=CCn1nc(C)c2c(C(F)(F)F)cc(NNC(=O)Nc3cc(Cl)nc(Cl)c3)nc21 [Compound 5],> 10000 nM,> 10000 nM,
COCCOc1cc(NC(=O)NN(CCO)c2cc(C(C)C)c3c(C)nn(C)c3n2)cc(Cl)n1 [Compound 37],160 nM,> 10000 nM,
"CC(C)NCC(O)COc1cccc2ccccc12 (centres unmarked) [Propanolol, reference compound]",,,mean fraction bound (%) [1]: 87.4%
Cc1nn(C)c2nc(N(CCO)NC(=O)Nc3cc(Cl)no3)cc(C(C)C)c12 [Compound 45],> 10000 nM,> 10000 nM,

# Continued, in another order:
IC50 (S1P2 receptor),IC50 (S1P5 receptor),SMILES,other results
64 nM,290 nM,Cc1nn(C)c2nc(N(CCO)NC(=O)Nc3cc(Cl)c(Cl)s3)cc(C(C)C)c12 [Compound 42],
19 nM,40 nM,CCN(C)c1cc(NC(=O)NN(CCO)c2cc(C(C)C)c3c(C)nn(C)c3n2)cc(Cl)n1 [Compound 39],
7 nM,20.9 nM,"Cc1nn(C)c2nc(N(CCO)NC(=O)Nc3cc(Cl)nc(Cl)c3)cc(C(C)C)c12 [Compound 9, N-(2,6-Dichloropyridin-4-yl)-2-(2-hydroxyethyl)-2-(4-isopropyl-1,3-dimethyl-1H-pyrazolo[3,4-b]pyridin-6-yl)hydrazine-1-carboxamide]",
4 nM,4.6 nM,CCNc1cc(NC(=O)NN(CCO)c2cc(C(C)C)c3c(C)nn(C)c3n2)cc(Cl)n1 [Compound 38],
29 nM,13 nM,CCOc1cc(NC(=O)NN(CCO)c2cc(C(C)C)c3c(C)nn(C)c3n2)cc(Cl)n1 [Compound 35],
11 nM,3.2 nM,Cc1nn(C)c2nc(N(CC(=O)O)NC(=O)Nc3cc(Cl)nc(Cl)c3)cc(C(C)C)c12 [Compound 2],plasma protein binding (in words) ([1]; compared with JTE013 and compound 1): lower plasma protein binding; mean fraction bound (%) [1]: 77.0%; stability in liver microsomes (in words) ([2]; compared with JTE013): much more stable in liver microsomes; microsomal CLint at 1 μM ([2]; NADPH-dependent Clint (microsomal intrinsic clearance)): 20 µL/min/mg; half-life at 1 μM ([2]; NADPH-dependent T1/2 (half-life)): 1.88 h; microsomal CLint at 1 μM ([2]; NADPH-free Clint (microsomal intrinsic clearance)): 9 µL/min/mg; half-life at 1 μM ([2]; NADPH-free T1/2 (half-life)): > 3 h
52 nM,8.7 nM,C=CCn1nc(C)c2c(C(C)C)cc(ONC(=O)Nc3cc(Cl)nc(Cl)c3)nc21 [Compound 6],
75 nM,165 nM,C=CCn1nc(C)c2c(C(C)C)cc(NNC(=O)Nc3cc(Cl)nc(Cl)c3)nc21 [Compound 27],
10 nM,33 nM,CCCOc1cc(NC(=O)NN(CCO)c2cc(C(C)C)c3c(C)nn(C)c3n2)cc(Cl)n1 [Compound 36],
5 nM,< 10 nM,CC(C)c1cc(NNC(=O)Nc2cc(Cl)nc(Cl)c2)nc2c(CCCO)nn(C)c12 [Compound 33],
